“Also recorded” adds a separate entry of the source. Where two headings read alike, the source gives them in different places.
How the values were obtained:
[1] = tested on: MIAPACA2T2 cells; settings: 6 days
Protocol: (§3) Cell viability was measured by the CellTiter-Glo Luminescence assay. Raw luminescent values were converted to fraction affected (Fa) with the following equation:
(§4) Synergy analysis was performed using the CalcuSyn software to determine CI scores based on the drug concentrations used and corresponding Fa values.

[2] = tested on: endogenous MTAP-null patient derived xenograft models; experiment: MTAP-null patient derived xenograft (PDX) models, tumor growth inhibition; type: in vivo, mice
Source text: Female NOD/SCID mice were implanted with PA5415 (pancreatic tumors) or ES11082 (esophageal tumors). […] Data represent group means±SEM, n=10. for each group.
For each model, 6 Female NOD/SCID mice were implanted with PDX. Mean tumor volumes for each grouping were between 100-200 mm^3.
6 Female NOD/SCID mice were implanted with patient-derived tumor xenograft (PDX) models of pancreatic ovarian, esophageal, melanoma, lung, brain, mixed mullerian or gallbladder cancer. Mean tumor volumes for each grouping were between 100-200 mm^3.

[3] = tested on: HCT116 MTAP-WT cells; experiment: 6-day CellTiter-Glo viability in MTAP-WT cells; type: cell-based; settings: Homo sapiens, HCT-116, 144 h, 6 days, read-out: proliferation, IC50
Protocol: (§1) FIG. 1. […] Viability was measured by CellTiter-Glo and cooperativity was determined as follows: Cooperativity=WT IC50/MTAP-null IC50.
(§2) Plated cells were at optimized cell density in 96-well black walled, clear bottom tissue culture plates in 90 μL of growth media. Cells were incubated at room temperature for 30 minutes prior to placing in incubator at 37° C. and 5% CO2 overnight. […] Secondary compound dilutions (1:100) in media were done in the 96-well V-Bottom plate by adding 3 μL of the primary dilution to 297 μL of culture media. Finally, 10 μL from the secondary compound dilutions were added to cells in triplicate (1:10 dilution; final DMSO concentration 0.1%). Once addition was complete, plates were incubated at 37° C. and 5% CO2. […] Percent of Control (POC) values were calculated as follows: POC=100*(Treatment/Vehicle). Mean POC values were then calculated for each treatment condition and used to fit dose response curves applying a four parameter logistic curve in GraphPad Prism 7.

[4] = tested on: DOHH-2 endogenous MTAP-null xenografts; settings: mouse, in vivo, po
Protocol: FIG. 10. […] Female SCID mice were implanted with DOHH-2 or BxPC-3 tumors. […] Data represent group means±SEM, n=10. Terminal DOHH-2 or BxPC-3 tumors were collected for SDMA ELISA analysis. Data represent mean±SD, n=5 for each group. STATS: P values were determined by Linear Mixed-Effects Model with a Dunnett's comparison to control; **p<0.01, ****p<0.0001.
FIG. 11. […] (A-D.) Female SCID mice were implanted with DOHH-2 tumors. […] Mice were dosed orally (p.o.) once a day for ten days. Data represent group means±SEM, n=10. A.) Terminal DOHH-2 tumor volumes. […] C.) Disaggregated tumors were stained for γH2AX, MFI (mean florescent intensity). D.) Cardiac bleeds were performed and analyzed on ADVIA.

[5] = tested on: HCT116 MTAP-WT cells; experiment: Global SDMA levels (in-cell imaging) in MTAP-WT cells; type: cell-based; settings: Homo sapiens, HCT-116, 96 h, 4 days
Protocol: as §1
HCT116 WT and MTAP-null global SDMA levels were assessed by an in-cell imaging assay after 4 days treatment.

[6] = tested on: HCT116 MTAP-null tumor xenografts; settings: mouse, in vivo, po
Protocol: FIG. 2: ELISA analysis of HCT116 MTAP WT and HCT116 MTAP-null contralateral tumor cells. […] Percentage of inhibition reported relative to matched vehicle. Data represent mean±SD, n=3 for each group.
Female Athymic Nude mice were implanted with HCT116 MTAP-null or MTAP WT tumors. […] Data represents group means±SEM, n=10. […] STATS: P values were determined by Linear Mixed-Effects Model with a Dunnett's comparison to control.

[7] = tested on: PSN1 cells; experiment: Combination with gemcitabine, CellTiter-Glo viability, Fa and CalcuSyn CI; settings: 6 days
Protocol: as §3, §4

[8] = tested on: HAP1- and HCT116 MTAP-null cells; experiment: 6-day CellTiter-Glo viability in MTAP-null cells; type: cell-based; settings: 144 h, 6 days, read-out: proliferation, IC50
Protocol: as §1, §2

[9] = tested on: MTAP-null cells; experiment: In-vitro mechanism of action studies (DNA damage, cell cycle); type: cell-based; settings: data not shown
[10] = tested on: endogenous wild-type or MTAP-null cell lines; experiment: 6-day viability in expanded panel of tumor cell lines; type: cell-based; settings: endogenous MTAP-null vs wild-type cell lines; 6-day CellTiter-Glo
Protocol: FIG. 9. […] Top concentration of tested was 10 μM (1 uM for DLBCL lines) with a total of nine 1:3 serial dilution steps and DMSO-only control. […] (mean±SD, n=3).

[11] = tested on: BXPC-3 endogenous MTAP-null xenografts; experiment: BxPC-3 xenografts; type: in vivo; settings: BxPC-3 xenografts in SCID mice; p.o. once a day
Source text: FIG. 10. […] Data represent group means±SEM, n=10. […] Data represent mean±SD, n=5 for each group.

[12] = Compound G 0.83102 μM fixed + 5-FU 0.664052 μM
[13] = Compound G 0.83102 μM fixed + 5-FU 0.929672 μM
[14] = Compound G 0.83102 μM fixed + 5-FU 1.30154 μM
[15] = Compound G 0.83102 μM fixed + 5-FU 1.82216 μM
[16] = Compound G 0.83102 μM fixed + 5-FU 2.55102 μM
[17] = Compound G 0.83102 μM fixed + 5-FU 3.57143 μM
[18] = Compound G 0.83102 μM fixed + 5-FU 5 μM
[19] = Compound B 0.022375 μM fixed + Gemcitabine 0.001461 μM
[20] = Compound B 0.022375 μM fixed + Gemcitabine 0.005612 μM

Nc1nc2cnc(C(=O)N3CCOC[C@@H]3c3ccc(C(F)(F)F)cc3)cc2c2c1COC2 [Compound G]
Combination Fa [1, 12]: 0.7114
Computed CI value [1, 12]: 0.445
Combination Fa [1, 13]: 0.7511
Computed CI value [1, 13]: 0.477
Combination Fa [1, 14]: 0.8099
Computed CI value [1, 14]: 0.482
Combination Fa [1, 15]: 0.85
Computed CI value [1, 15]: 0.529
Combination Fa [1, 16]: 0.8941
Computed CI value [1, 16]: 0.555
Combination Fa [1, 17]: 0.9193
Computed CI value [1, 17]: 0.632
Combination Fa [1, 18]: 0.9246
Computed CI value [1, 18]: 0.834

Cc1cc2cc(C(=O)N(Cc3ccc(C(F)(F)F)cn3)[C@@H](C)c3ncccn3)ccc2nc1N [Compound B]
tumor growth inhibition (TGI) ([2]; 100 mg/kg orally once daily, majority of PDX models harboring deletion of the MTAP gene, panel of over twenty PDX models): greater than 50%
anti-tumor growth inhibition ([2]; PA5415 pancreatic and ES11082 esophageal PDX, p.o. once a day): significant anti-tumor growth inhibition
IC50 [3]: 630 nM
anti-tumor activity [4]: significant anti-tumor activity
DNA damage response in tumors (γH2AX) ([4]; 100 mg/kg): increase in the DNA damage response
cell cycle in tumors (BrdU/DAPI flow cytometry) ([4]; 100 mg/kg): cell cycle arrest
IC50 [5]: 50 nM
SDMA and tumor growth in xenografts [6]: selectively inhibits SDMA and tumor growth
Combination Fa [7, 19]: 0.594
Computed CI value [7, 19]: 2.081
Computed CI value ([7]; Compound B 0.022375 μM fixed + Gemcitabine 0.002045 μM): 1.177
Combination Fa [7, 20]: 0.985
Computed CI value [7, 20]: 0.8
Combination Fa ([7]; Compound B 0.022375 μM fixed + Gemcitabine 0.007857 μM): 0.986
Combination Fa ([7]; Compound B 0.022375 μM fixed + Gemcitabine 0.011 μM): 0.989
IC50 [8]: 27 nM
DNA damage (phosphorylation of H2AX) [9]: induced DNA damage, as illustrated by increased phosphorylation of H2AX
cell cycle [9]: an arrest in the G2/M phase of the cell cycle
proliferation / viability in expanded panel of tumor cell lines [10]: inhibited the proliferation of most MTAP-null cells, with minimal effects on MTAP-WT cells; also recorded: preferential activity in endogenous MTAP-null tumor cell lines; also recorded: preferentially inhibits cell viability in endogenous MTAP-null vs. wildtype
anti-tumor activity [11]: significant anti-tumor activity
